Reference: US10273221B2, “Microbiocidal heterobicyclic derivatives” (Syngenta Participations AG, priority 2015, dated 2019)

Experiments:
[1] = test system: Pyrenophora teres; test: Pyrenophora teres / liquid culture (net blotch); format: cell-based; settings: growth inhibition determined photometrically 3-4 days after application, vs untreated control
[2] = test system: Sclerotinia sclerotiorum; test: Sclerotinia sclerotiorum / liquid culture (cottony rot); settings: 72 h, read-out: control of Sclerotinia sclerotiorum
Procedure: Sclerotinia sclerotiorum/Liquid Culture (Cottony Rot)
Mycelia fragments of a newly grown liquid culture of the fungus are directly mixed into nutrient broth (Vogels broth). After placing a (DMSO) solution of test compound into a microtiter plate (96-well format) the nutrient broth containing the fungal material is added. The test plates are incubated at 24° C. and the inhibition of growth is determined photometrically 3-4 days after application.

[3] = test system: Glomerella lagenarium (Colletotrichum lagenarium); test: Glomerella lagenarium (Colletotrichum lagenarium) / liquid culture (anthracnose); format: cell-based; settings: Colletotrichum orbiculare, growth inhibition measured photometrically 3-4 days after application, vs untreated control, read-out: disease control
[4] = test system: Fusarium culmorum; test: microbe, parasite or virus in culture; format: cell-based; settings: 72 h, read-out: disease control
[5] = test system: Magnaporthe grisea (Pyricularia oryzae); test: microbe, parasite or virus in culture; format: cell-based; settings: 72 h, read-out: control of Magnaporthe grisea
[6] = test system: Mycosphaerella graminicola (Septoria tritici); test: Mycosphaerella graminicola (Septoria tritici) / liquid culture (Septoria blotch); format: cell-based; settings: Zymoseptoria tritici, 96 h, growth inhibition determined photometrically 4-5 days after application, vs untreated control, read-out: disease control
[7] = test system: Botryotinia fuckeliana (Botrytis cinerea); test: Botryotinia fuckeliana (Botrytis cinerea) / liquid culture (gray mould); format: cell-based; settings: growth inhibition determined photometrically 3-4 days after application, vs untreated control, read-out: disease control
[8] = test system: Monographella nivalis (Microdochium nivale); test: Monographella nivalis (Microdochium nivale) / liquid culture (foot rot cereals); format: cell-based; settings: 96 h, growth inhibition determined photometrically 4-5 days after application, vs untreated control, read-out: disease control
[9] = test system: Gaeumannomyces graminis; test: Gaeumannomyces graminis / liquid culture (take-all of cereals); format: cell-based; settings: growth inhibition determined photometrically 4-5 days after application, vs untreated control, read-out: disease control
[10] = test system: Pyrenophora teres; test: Pyrenophora teres / barley / leaf disc preventative (net blotch); format: in vivo; settings: 200 ppm, barley leaf segments cv. Hasso, inoculated 2 days after application, assessed 5-7 days after application
Procedure: Pyrenophora teres/Barley/Leaf Disc Preventative (Net Blotch)
Barley leaf segments cv. Hasso are placed on agar in a multiwell plate (24-well format) and sprayed with the formulated test compound diluted in water. The leaf segmens are inoculated with a spore suspension of the fungus 2 days after application. The inoculated leaf segments are incubated at 20° C. and 65% rh under a light regime of 12 h light/12 h darkness in a climate cabinet and the activity of a compound is assessed as disease control compared to untreated when an appropriate level of disease damage appears in untreated check leaf segments (5-7 days after application).

Structure (SMILES)	inhibition of growth at 20 ppm [1]	inhibition of growth at 20 ppm [2]	inhibition of growth at 200 ppm [3]	inhibition of growth at 200 ppm [4]	inhibition of growth at 20 ppm [5]	inhibition of growth at 200 ppm [6]	inhibition of growth at 200 ppm [7]	inhibition of growth at 200 ppm [8]	melting point	inhibition of growth at 200 ppm [9]	control of Pyrenophora teres [10]
Cc1cccc2c1ncn2C1=NC(C)(C)C(C)(C)c2c(F)cccc21 [E-1]	≥ 80%	≥ 80%	≥ 80%	≥ 80%	≥ 80%	≥ 80%	≥ 80%	≥ 80%	45 to 46 °C	≥ 80%	–
Cc1cccc2c1ncn2C1=NC(C)(C)C(C)(C)c2ccccc21 [E-16]	≥ 80%	≥ 80%	≥ 80%	≥ 80%	≥ 80%	–	≥ 80%	≥ 80%	–	≥ 80%	at least 80%
